Experimental data as given in article PMC3606823 (Journal of biomolecular screening, 2012).
Read-outs that look alike come from different tables or passages of the source. Values belong to the compound of their own block, whether it stands above or below them.

Tests used:
human DDAH1 [1] = biological target: T1, human DDAH1 (Homo sapiens, UniProt O94760); assay: Colorimetric L-citrulline assay with ADMA as substrate; type: biochemical
human DDAH1 [2] = biological target: T1, human DDAH1; assay: Secondary fluorimetric CPM assay with SMTC as substrate; type: biochemical; conditions: for confirmation as DDAH inhibitor in the validation assay: known DDAH inhibitors; for time-dependent inhibition (mode of inhibition): 50 μM compound, 30 nM enzyme, fluorometric CPM assay; for IC50: inhibition of human DDAH1, CPM assay, 30 nM DDAH, 100 μM SMTC
[3] = system: primary microvascular endothelial cells (HMVECs); assay: L-citrulline assay in cell lysates; type: cell-based; conditions: 1 mM L-Arginine for 24 hours vs vehicle, p<0.05
DDAH = conditions: enzyme isolated from rat kidney homogenates; cited from earlier work
human DDAH1 [4] = biological target: T1, human DDAH1; conditions: cited from earlier work
[5] = screening with recombinant human DDAH1, assay format not given

T1 sequence (O94760 whole entry): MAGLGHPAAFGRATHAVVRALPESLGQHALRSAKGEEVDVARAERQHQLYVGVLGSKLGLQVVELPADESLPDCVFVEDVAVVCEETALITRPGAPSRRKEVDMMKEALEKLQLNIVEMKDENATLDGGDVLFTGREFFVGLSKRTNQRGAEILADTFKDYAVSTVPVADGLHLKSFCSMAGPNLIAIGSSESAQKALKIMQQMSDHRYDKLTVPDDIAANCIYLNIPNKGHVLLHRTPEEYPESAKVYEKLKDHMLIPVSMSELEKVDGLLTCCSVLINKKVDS

IC50 (human DDAH1 [1]): 3900 nM
confirmation as DDAH inhibitor in the validation assay (human DDAH1 [2]): confirmed
Structure (SMILES): O=c1c2ccccc2[se]n1-c1ccccc1 [ebselen]

Structure (SMILES): CC(=O)[O][Hg][c]1ccccc1 [phenylmercuric acetate]
IC50 (human DDAH1 [1]; [5]): < 780 nM
time-dependent inhibition (mode of inhibition) (human DDAH1 [2]): progressive inhibition
IC50 (human DDAH1 [2]): < 780 nM

Structure (SMILES): N=C(N)NCCC[C@H](N)C(=O)O [L-Arginine]
amount of intracellular L-citrulline [3]: increased the amount of intracellular L-citrulline significantly

IC50 (human DDAH1 [2]): 13300 nM
Structure (SMILES): CN=c1nc(-c2ccccc2)n(-c2ccccc2)s1 [SCH-202676]

Structure (SMILES): C[CH2][Hg][S]c1ccccc1C(=O)[O-].[Na+] [Thimerosal]
IC50 (human DDAH1 [1]; [5]): 460 nM

Structure (SMILES): [Cl][Hg][Cl] [mercury chloride]
sensitivity of the enzyme to the compound (DDAH): sensitive

Structure (SMILES): O=C(O)c1cc[c]([Hg][Cl])cc1 [chloromercuribenzoate, 4-chloromercuribenzoic acid]
time-dependent inhibition (mode of inhibition) (human DDAH1 [2]): progressive inhibition
confirmation as DDAH inhibitor in the validation assay (human DDAH1 [2]): confirmed
sensitivity of the enzyme to the compound (DDAH): sensitive

Structure (SMILES): Cn1c(=O)c2[nH]cnc2n(C)c1=O.[CH2-]C(Cc1cccc2cc(C(=O)O)c(=O)oc12)OC.[Hg+2].[OH-] (centres unmarked) [Cumertilin]
inhibition (human DDAH1 [1]; at 25μM, screening with recombinant human DDAH1): 100%

Structure (SMILES): CSC(N)=NCCC[C@H](N)C(=O)O [SMTC, S-methyl-L-thiocitrulline]
kcat (human DDAH1 [4]; SMTC as substrate at 100 μM): ~ 1 min^−1
Km (human DDAH1 [4]; SMTC as substrate): 1 µM

Structure (SMILES): CN(C)C(N)=NCCC[C@H](N)C(=O)O [ADMA, Asymmetric Dimethylarginine]
Km (human DDAH1 [1]): 180 µM
kcat (human DDAH1 [1]; ADMA as substrate, 0.3 μM DDAH, 500 μM ADMA, 4 hours at 37°C): ~ 0.7 min^−1
